These results are taken from ChEMBL document CHEMBL1165848, “Discovery of new cholesteryl ester transfer protein inhibitors via ligand-based pharmacophore modeling and QSAR analysis followed by synthetic exploration” (Eur J Med Chem, 2010).

Structures are written as SMILES.

For this test, the target named is T1, Cholesteryl ester transfer protein (Oryctolagus cuniculus, UniProt P22687).
T1 sequence (P22687 whole entry): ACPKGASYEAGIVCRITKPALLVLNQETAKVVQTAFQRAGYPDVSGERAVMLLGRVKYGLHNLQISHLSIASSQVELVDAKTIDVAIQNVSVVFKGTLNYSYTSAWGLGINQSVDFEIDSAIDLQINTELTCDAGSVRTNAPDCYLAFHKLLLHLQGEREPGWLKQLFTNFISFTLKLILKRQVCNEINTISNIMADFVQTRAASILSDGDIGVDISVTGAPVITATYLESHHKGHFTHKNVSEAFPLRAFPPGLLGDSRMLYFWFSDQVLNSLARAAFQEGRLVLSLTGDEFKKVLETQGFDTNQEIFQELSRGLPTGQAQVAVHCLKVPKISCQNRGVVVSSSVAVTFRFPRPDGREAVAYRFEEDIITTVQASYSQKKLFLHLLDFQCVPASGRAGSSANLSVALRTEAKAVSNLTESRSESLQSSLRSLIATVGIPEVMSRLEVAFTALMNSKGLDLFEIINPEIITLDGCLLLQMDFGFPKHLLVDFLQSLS
In words: Inhibition of CETP in rabbit serum after 1 hr by fluorescent cholesteryl esters transfer assay.

One may read the IC50 as the concentration needed to halve the response being measured. Regarding `OC(CN(Cc1cccc(OC(F)(F)C(F)F)c1)c1cccc(Oc2cc(F)cc(F)c2)c1)C(F)(F)F` (centres undefined), the IC50 (read-out: IC50) amounted to 200 nM. `CCCC(O)CN(Cc1cccc(OC(F)(F)F)c1)c1ccccc1Oc1ccccc1` (centres undefined): for the setting “read-out: IC50”, the IC50 came to 3600 nM. Regarding `OC(CN(Cc1cccc(OC(F)(F)C(F)F)c1)c1cccc(F)c1)C(F)(F)F` (centres undefined), for the setting “read-out: IC50”, the IC50 amounted to 4500 nM.

For the molecule `OC(CN(Cc1cccc(-c2ccncc2)c1)c1cccc(Oc2ccccc2)c1)C(F)(F)F` (centres undefined), the IC50 (read-out: IC50) amounted to 6240 nM. Turning to `Cc1ccc(Oc2cccc(N(Cc3cccc(OC(F)(F)C(F)F)c3)CC(O)C(F)(F)F)c2)cc1C` (centres undefined), where the note is “read-out: IC50”, the IC50 is 80 nM.

With `OC(CN(Cc1cccc(Oc2ccccc2)c1)Cc1cccc(OC(F)(F)F)c1)C(F)(F)F` (centres undefined), the IC50 (read-out: IC50) is 30000 nM. `Cc1cccc(CN(CC(O)C(F)(F)F)c2cccc(F)c2)c1` (centres undefined): for the setting “read-out: IC50”, the IC50 is above 100000 nM. As for `CC(C)(C)c1cccc(Oc2cccc(N(Cc3cccc(OC(F)(F)C(F)F)c3)CC(O)C(F)(F)F)c2)c1` (centres undefined), where the note is “read-out: IC50”, the IC50 amounted to 80 nM. Still for that read-out and setting: next, `OC(CN(Cc1cccc(OC(F)(F)F)c1)c1ccc(Oc2ccccc2)cc1)C(F)(F)F` (centres undefined): 25000 nM; `OC(CN(Cc1ccc(OC(F)(F)F)cc1)c1cccc(Oc2ccccc2)c1)C(F)(F)F` (centres undefined): 4000 nM; `CN(C)c1cccc(Oc2cccc(N(Cc3cccc(OC(F)(F)C(F)F)c3)CC(O)C(F)(F)F)c2)c1` (centres undefined): 200 nM.

For the molecule `Cc1cc(Oc2cccc(N(Cc3cccc(OC(F)(F)C(F)F)c3)CC(O)C(F)(F)F)c2)ccc1Cl` (centres undefined), the IC50 (read-out: IC50) worked out at 200 nM.

With `CCc1cc(Oc2cccc(N(Cc3cccc(OC(F)(F)F)c3)C[C@@H](O)C(F)(F)F)c2)ccc1Cl`, the half-maximal inhibitory concentration (IC50) (read-out: IC50) came to 35 nM. In the case of `Cc1ccc(Oc2cccc(N(Cc3cccc(OC(F)(F)C(F)F)c3)CC(O)C(F)(F)F)c2)cc1` (centres undefined), under “read-out: IC50”, the IC50 was found to be 100 nM. In the case of `OC(CN(Cc1cccc(-c2cccs2)c1)c1cccc(Oc2ccccc2)c1)C(F)(F)F` (centres undefined), the IC50 (read-out: IC50) came out at 1120 nM. In the case of `OC(CN(Cc1cccc(OC(F)(F)F)c1)c1ccccc1Oc1ccccc1)c1ccc(C(F)(F)F)cc1` (centres undefined), the IC50 (read-out: IC50) came out at 18000 nM.

With `OC(CN(Cc1cccc(OC(F)(F)C(F)F)c1)c1cccc(OC2CCCCC2)c1)C(F)(F)F` (centres undefined), where the note is “read-out: IC50”, the IC50 is 2600 nM. With `CC(C)Cc1cccc(CN(CC(O)C(F)(F)F)c2cccc(Oc3ccccc3)c2)c1` (centres undefined), the IC50 (read-out: IC50) worked out at 540 nM. On to `OC(CN(Cc1cccc(SC(F)(F)F)c1)c1cccc(Oc2ccccc2)c1)C(F)(F)F` (centres undefined), for which, where the note is “read-out: IC50”, the IC50 is 390 nM.

Regarding `COc1cccc(CN(CC(O)C(F)(F)F)c2cccc(Oc3ccccc3)c2)c1` (centres undefined), under “read-out: IC50”, the IC50 came out at 15000 nM. For `OC(CN(Cc1cccc(OC(F)(F)C(F)F)c1)c1cccc(Oc2cccc(F)c2F)c1)C(F)(F)F` (centres undefined), for the setting “read-out: IC50”, the IC50 stood at 100 nM. Same read-out and setting: next, `OC(CN(Cc1cccc(OC(F)(F)C(F)F)c1)c1cccc(Oc2cccc(Cl)c2Cl)c1)C(F)(F)F` (centres undefined): 30 nM; `OC(CN(Cc1cccc(Oc2cccc(C(F)(F)F)c2)c1)c1cccc(F)c1)C(F)(F)F` (centres undefined): 1.2 nM. Consider `OC(CN(Cc1ccc(-c2ccccc2)cc1)c1cccc(F)c1)C(F)(F)F` (centres undefined), for which the IC50 (read-out: IC50) stood at 20000 nM.

For `OC(CN(Cc1cccc(C(F)(F)F)c1)c1cccc(Cl)c1)C(F)(F)F` (centres undefined), the IC50 (read-out: IC50) was determined as 12000 nM. With `OC(CN(Cc1ccc2c(c1)OC(F)(F)C(F)(F)O2)c1cccc(Oc2ccccc2)c1)C(F)(F)F` (centres undefined), where the note is “read-out: IC50”, the IC50 is 12000 nM. For the molecule `OC(CN(Cc1cccc(-c2ncccc2C(F)(F)F)c1)c1cccc(Oc2ccccc2)c1)C(F)(F)F` (centres undefined), for the setting “read-out: IC50”, the IC50 was determined as 4080 nM. Consider `OC(CN(Cc1cccc(C(F)(F)F)c1)c1cccc(F)c1)C(F)(F)F` (centres undefined), for which the IC50 (read-out: IC50) turned out to be 40000 nM.

On to `Cc1cccnc1-c1cccc(CN(CC(O)C(F)(F)F)c2cccc(Oc3ccccc3)c2)c1` (centres undefined), for which, for the setting “read-out: IC50”, the IC50 came to 15000 nM. Consider `C=CC(O)CN(Cc1cccc(OC(F)(F)F)c1)c1ccccc1Oc1ccccc1` (centres undefined), for which the IC50 (read-out: IC50) is above 50000 nM. Consider `OC(CN(Cc1cccc(OC(F)(F)F)c1)Cc1cccc(OC(F)(F)F)c1)C(F)(F)F` (centres undefined), for which the IC50 (read-out: IC50) worked out at 23000 nM. As to `Cc1ccc(CN(CC(O)C(F)(F)F)c2cccc(Oc3ccccc3)c2)cc1-c1ccco1` (centres undefined), under “read-out: IC50”, the IC50 was determined as 3960 nM.

As to `Cc1cc(Oc2cccc(N(Cc3cccc(OC(F)(F)C(F)F)c3)CC(O)C(F)(F)F)c2)ccc1F` (centres undefined), the IC50 (read-out: IC50) was 80 nM.

With `CCc1cc(Oc2cccc(N(Cc3cc(C(F)(F)F)ccc3F)C[C@@H](O)C(F)(F)F)c2)ccc1Cl`, the IC50 (read-out: IC50) amounted to 49 nM. `CC(C)Oc1cccc(N(Cc2cccc(OC(F)(F)C(F)F)c2)CC(O)C(F)(F)F)c1` (centres undefined) returned an IC50 of 300 nM.

Take `Cc1cccc(Oc2cccc(N(Cc3cccc(OC(F)(F)C(F)F)c3)CC(O)C(F)(F)F)c2)c1` (centres undefined): the IC50 (read-out: IC50) is 90 nM. On to `OC(Cc1ccccc1)CN(Cc1cccc(OC(F)(F)F)c1)c1ccccc1Oc1ccccc1` (centres undefined), for which the IC50 (read-out: IC50) was above 50000 nM.

For `O=[N+]([O-])c1ccccc1Oc1cccc(N(Cc2cccc(OC(F)(F)C(F)F)c2)CC(O)C(F)(F)F)c1` (centres undefined), the IC50 (read-out: IC50) was 400 nM. In the case of `COc1cc(N(Cc2cccc(SC(F)(F)F)c2)C[C@@H](O)C(F)(F)F)cc(OC)c1OC`, under “read-out: IC50”, the IC50 worked out at 5000 nM. Turning to `OC(CN(Cc1ccccc1)c1cccc(F)c1)C(F)(F)F` (centres undefined), the IC50 (read-out: IC50) is above 100000 nM.

Take `OC(CN(Cc1cccc(C2CCCC2)c1)c1cccc(Oc2ccccc2)c1)C(F)(F)F` (centres undefined): the IC50 (read-out: IC50) is 300 nM. For `OC(CN(Cc1cccc(OC(F)(F)C(F)F)c1)c1cccc(Oc2ccc(OC(F)(F)F)cc2)c1)C(F)(F)F` (centres undefined), under “read-out: IC50”, the IC50 worked out at 400 nM. For `OC(CN(Cc1cccc(OC(F)(F)C(F)F)c1)c1cccc(OCc2ccccc2)c1)C(F)(F)F` (centres undefined), the IC50 (read-out: IC50) was 200 nM. For `OC(CN(Cc1cccc(OC(F)(F)C(F)F)c1)c1cccc(OC2CCCC2)c1)C(F)(F)F` (centres undefined), for the setting “read-out: IC50”, the IC50 came to 400 nM. For the molecule `O=[N+]([O-])c1c(F)cccc1Oc1cccc(N(Cc2cccc(OC(F)(F)C(F)F)c2)CC(O)C(F)(F)F)c1` (centres undefined), the IC50 (read-out: IC50) came to 100 nM. On the same count and under the same terms, next, `OC(CN(Cc1cccc(OC(F)(F)C(F)F)c1)c1cccc(Oc2ccccc2Cl)c1)C(F)(F)F` (centres undefined): 300 nM. `CCc1cc(Oc2cccc(N(Cc3ccc(C(F)(F)F)cc3F)C[C@@H](O)C(F)(F)F)c2)ccc1Cl`: the IC50 (read-out: IC50) turned out to be 40 nM. On the same count and under the same terms, to `OC(CN(Cc1cccc(-c2ccccc2)c1)c1cccc(Oc2ccccc2)c1)C(F)(F)F` (centres undefined) belongs 4420 nM.

As to `OC(CN(Cc1ccc(F)c(-c2ccco2)c1)c1cccc(Oc2ccccc2)c1)C(F)(F)F` (centres undefined), the IC50 (read-out: IC50) amounted to 720 nM. Still for that read-out and setting: to `Cc1ccccc1CN(CC(O)C(F)(F)F)c1cccc(F)c1` (centres undefined) belongs above 100000 nM; to `OC(CN(Cc1cccc(-c2cccnc2)c1)c1cccc(Oc2ccccc2)c1)C(F)(F)F` (centres undefined), 14300 nM; to `OC(CN(Cc1cccc(Oc2ccccc2)c1)c1cccc(F)c1)C(F)(F)F` (centres undefined), 15000 nM.

Take `Cc1ccc(CN(CC(O)C(F)(F)F)c2cccc(F)c2)cc1` (centres undefined): the IC50 (read-out: IC50) worked out at 65000 nM. `OC(CN(Cc1cccc(OC(F)(F)C(F)F)c1)c1cccc(Oc2ccc(-c3ccccc3)cc2)c1)C(F)(F)F` (centres undefined): for the setting “read-out: IC50”, the IC50 came to 2500 nM. Still for that read-out and setting: to `OC(CN(Cc1cccc(OC(F)(F)C(F)F)c1)c1cccc(Oc2ccc(Cl)cc2)c1)C(F)(F)F` (centres undefined) belongs 300 nM. As to `OC(CN(Cc1ccc(OC(F)(F)F)cc1)c1cccc(F)c1)C(F)(F)F` (centres undefined), the IC50 (read-out: IC50) was determined as 15000 nM. For the molecule `OC(CN(Cc1cccc(OC(F)(F)C(F)F)c1)c1cccc(Oc2cccnc2)c1)C(F)(F)F` (centres undefined), the IC50 (read-out: IC50) was found to be 1300 nM. For `OC(CN(Cc1cccc(OC(F)(F)F)c1)c1ccccc1Oc1ccccc1)c1ccccc1` (centres undefined), the IC50 (read-out: IC50) was above 50000 nM. For `OC(CN(Cc1cccc(OC(F)(F)C(F)(F)F)c1)c1cccc(Oc2ccc(S)cc2)c1)C(F)(F)F` (centres undefined), the IC50 (read-out: IC50) is above 50000 nM.
